Measured values reported in patent publication US8778923B2, “GLP-1 receptor modulators” (Receptos, Inc., priority 2011, dated 2014).

Biological target: T1, GLP-1R (Homo sapiens, UniProt P43220)
T1 construct: host or cells: CRE-bla CHO-K1
Assay: EC20 GLP-1(9-36) PAM cAMP assay: dose response of compound in the presence of fixed concentration of GLP-1(9-36)
Type: cell-based
Conditions: GLP-1R CRE-bla CHO-K1 cells, compound dose response in presence of fixed concentration of GLP-1(9-36)
Procedure: EC20 GLP-1(9-36) PAM cAMP Assay: Dose Response of Compound in the Presence of Fixed Concentration of GLP-1 (9-36).
GLP-1R CRE-bla CHO-K1 cells cultured in growth medium (DMEM-High glucose, 10% dialyzed FBS, 0.1 mM NEAA, 25 mM Hepes, 100 U/mL penicillin/100 μg/mL streptomycin, 5 μg/mL Blasticidin, 600 μg/mL Hygromycin) were tryspsinized and plated in suspension into 384 well white flat bottom plates at 5000 cells/well in 12 μL assay buffer (Hanks Balanced Salt solution, 10 mM Hepes, 0.1% BSA, pH 7.4). A 5× compound dose response curve (12-point) was generated in assay buffer containing 1.5 mM IBMX, 12.5% DMSO. GLP-1(9-36) was diluted to 4.2 μM in assay buffer containing 1.5 mM IBMX and 12.5% DMSO. The 5× compound dose response was added (3 μL), followed by 0.5 μL of GLP-1(9-36) and cells were incubated for 30 min at 37° C. Direct detection of cAMP was carried out using DiscoveRx HitHunter cAMP kit according to manufacturer's instructions and luminescence was read using a SpectraMax M5 plate reader. Luminescence was converted to total cAMP using a cAMP standard curve and data was analyzed by non-linear regression to determine the EC50 and Emax.
GLP-1(7-36): […]-NH2. GLP-1(9-36): […]-NH2. GLP-1(7-36) was purchased from GenScript. GLP-1(9-36) was purchased from Biopeptide Co., Inc.

T1 sequence (P43220 24-463): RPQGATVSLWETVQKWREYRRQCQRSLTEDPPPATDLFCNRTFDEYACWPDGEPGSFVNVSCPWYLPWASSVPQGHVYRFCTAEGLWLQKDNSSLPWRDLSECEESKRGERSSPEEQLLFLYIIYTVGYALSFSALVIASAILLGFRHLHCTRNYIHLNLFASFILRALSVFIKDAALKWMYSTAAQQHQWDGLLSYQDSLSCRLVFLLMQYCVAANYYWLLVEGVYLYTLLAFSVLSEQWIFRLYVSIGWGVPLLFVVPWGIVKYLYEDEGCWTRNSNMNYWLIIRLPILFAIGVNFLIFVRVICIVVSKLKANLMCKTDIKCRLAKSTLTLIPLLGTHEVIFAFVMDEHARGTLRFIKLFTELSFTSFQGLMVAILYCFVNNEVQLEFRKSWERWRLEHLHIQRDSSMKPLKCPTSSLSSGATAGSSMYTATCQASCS
T1 sequence (P01275 100-127 partner limits assumed): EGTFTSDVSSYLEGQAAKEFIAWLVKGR

SMILES | EC50 [nM]
CCCCCCCOc1ccc(-c2noc(-c3ccc(C[C@H](NC(=O)c4ccc(C(C)(C)C)cc4)C(=O)O)cc3)n2)cc1 [Compound 1, (S)-2-(4-(tert-butyl)benzamido)-3-(4-(3-(4-(heptyloxy)phenyl)-1,2,4-oxadiazol-5-yl)phenyl)propanoic acid] | 800 to 2500
CCCCCCCOc1ccc(-c2nc(-c3ccc(C[C@H](NC(=O)c4ccc(C(C)(C)C)cc4)C(=O)O)cc3)no2)cc1 [Compound 2, (S)-2-(4-(tert-butyl)benzamido)-3-(4-(5-(4-(heptyloxy)phenyl)-1,2,4-oxadiazol-3-yl)phenyl)propanoic acid] | 2500 to 5000
Cc1ccc(-c2ccc(-c3nc(-c4ccc(C[C@H](NC(=O)c5ccc(C(C)(C)C)cc5)C(=O)O)cc4)no3)cc2)cc1 [Compound 3] | 5000 to 10000
CC(C)(C)c1ccc(C(=O)N[C@@H](Cc2ccc(-c3noc(-c4ccc(-c5ccccc5)cc4)n3)cc2)C(=O)O)cc1 [Compound 4] | 5000 to 10000
CC(C)(C)c1ccc(C(=O)N[C@@H](Cc2ccc(-c3noc(-c4ccc(N5CCCCC5)cc4)n3)cc2)C(=O)O)cc1 [Compound 5] | 2500 to 5000
CC1CCN(c2ccc(-c3nc(-c4ccc(C[C@H](NC(=O)c5ccc(C(C)(C)C)cc5)C(=O)O)cc4)no3)cc2)CC1 [Compound 6] | 5000 to 10000
Cc1ccc(-c2nc(-c3ccc(C[C@H](NC(=O)c4ccc(C(C)(C)C)cc4)C(=O)O)cc3)no2)cc1 [Compound 7] | 5000 to 10000
CC(C)(C)c1ccc(C(=O)N[C@@H](Cc2ccc(-c3noc(-c4ccc(C(C)(C)C)cc4)n3)cc2)C(=O)O)cc1 [Compound 8] | 800 to 2500
COc1cc(C)ccc1-c1nc(-c2ccc(C[C@H](NC(=O)c3ccc(C(C)(C)C)cc3)C(=O)O)cc2)no1 [Compound 9] | 5000 to 10000
CC(C)c1ccc(-c2nc(-c3ccc(C[C@H](NC(=O)c4ccc(C(C)(C)C)cc4)C(=O)O)cc3)no2)cc1 [Compound 10] | 2500 to 5000
CC(C)(C)c1ccc(C(=O)N[C@@H](Cc2ccc(-c3noc(-c4ccc(C(F)(F)F)cc4)n3)cc2)C(=O)O)cc1 [Compound 11] | 800 to 2500
Cc1cccc(-c2ccc(-c3nc(-c4ccc(C[C@H](NC(=O)c5ccc(C(C)(C)C)cc5)C(=O)O)cc4)no3)cc2)c1 [Compound 13] | 800 to 2500
Cc1ccccc1-c1ccc(-c2nc(-c3ccc(C[C@H](NC(=O)c4ccc(C(C)(C)C)cc4)C(=O)O)cc3)no2)cc1 [Compound 14] | 2500 to 5000
COc1ccc(-c2ccc(-c3nc(-c4ccc(C[C@H](NC(=O)c5ccc(C(C)(C)C)cc5)C(=O)O)cc4)no3)cc2)cc1 [Compound 15] | 2500 to 5000
CC(C)(C)c1ccc(C(=O)N[C@@H](Cc2ccc(-c3noc(-c4ccc(-c5ccc(Cl)cc5)cc4)n3)cc2)C(=O)O)cc1 [Compound 16] | 5000 to 10000
CC(C)(C)c1ccc(C(=O)N[C@@H](Cc2ccc(-c3noc(-c4ccc(-c5cccc(Cl)c5)cc4)n3)cc2)C(=O)O)cc1 [Compound 17] | 2500 to 5000
CC(C)(C)c1ccc(C(=O)N[C@@H](Cc2ccc(-c3noc(-c4ccc(-c5ccccc5Cl)cc4)n3)cc2)C(=O)O)cc1 [Compound 18] | 800 to 2500
CC(C)(C)c1ccc(C(=O)N[C@@H](Cc2ccc(-c3noc(-c4ccc(-c5ccccc5F)cc4)n3)cc2)C(=O)O)cc1 [Compound 19] | 800 to 2500
CC(C)(C)c1ccc(C(=O)N[C@@H](Cc2ccc(-c3noc(-c4ccc(-c5cccc(F)c5)cc4)n3)cc2)C(=O)O)cc1 [Compound 20] | 800 to 2500
CC(C)(C)c1ccc(C(=O)N[C@@H](Cc2ccc(-c3noc(-c4ccc(-c5ccc(F)cc5)cc4)n3)cc2)C(=O)O)cc1 [Compound 21] | 2500 to 5000
CC(C)(C)c1ccc(C(=O)N[C@@H](Cc2ccc(-c3noc(-c4ccc(-c5ccc(F)c(F)c5)cc4)n3)cc2)C(=O)O)cc1 [Compound 22] | 2500 to 5000
CC(C)(C)c1ccc(C(=O)N[C@@H](Cc2ccc(-c3noc(-c4ccc(-c5cc(F)ccc5F)cc4)n3)cc2)C(=O)O)cc1 [Compound 23] | 2500 to 5000

SMILES | EC50 [nM]
CC(C)(C)c1ccc(C(=O)N[C@@H](Cc2ccc(-c3noc(-c4ccc(-c5ccc(F)cc5F)cc4)n3)cc2)C(=O)O)cc1 [Compound 24] | 800 to 2500
COc1ccc(-c2ccc(-c3nc(-c4ccc(C[C@H](NC(=O)c5ccc(C(C)(C)C)cc5)C(=O)O)cc4)no3)cc2)c(OC)c1 [Compound 25] | 800 to 2500
COc1cc(OC)cc(-c2ccc(-c3nc(-c4ccc(C[C@H](NC(=O)c5ccc(C(C)(C)C)cc5)C(=O)O)cc4)no3)cc2)c1 [Compound 26] | 2500 to 5000
COc1cc(C(F)(F)F)ccc1-c1ccc(-c2nc(-c3ccc(C[C@H](NC(=O)c4ccc(C(C)(C)C)cc4)C(=O)O)cc3)no2)cc1 [Compound 27] | 800 to 2500
CC(C)(C)c1ccc(C(=O)N[C@@H](Cc2ccc(-c3noc(-c4ccc(-c5cccc(C#N)c5)cc4)n3)cc2)C(=O)O)cc1 [Compound 28] | 2500 to 5000
CC(C)(C)c1ccc(C(=O)N[C@@H](Cc2ccc(-c3noc(-c4ccc(-c5ccc(C#N)cc5)cc4)n3)cc2)C(=O)O)cc1 [Compound 29] | 800 to 2500
COc1ccc(-c2ccc(-c3nc(-c4ccc(C[C@H](NC(=O)c5ccc(C(C)(C)C)cc5)C(=O)O)cc4)no3)cc2)cc1OC [Compound 30] | 800 to 2500
CC(C)(C)c1ccc(C(=O)N[C@@H](Cc2ccc(-c3noc(-c4ccc(-c5ccccc5C#N)cc4)n3)cc2)C(=O)O)cc1 [Compound 31] | 800 to 2500
CC(C)(C)c1ccc(C(=O)N[C@@H](Cc2ccc(-c3noc(-c4ccc(N5CCCCC5)nc4)n3)cc2)C(=O)O)cc1 [Compound 32] | 5000 to 10000
CC(C)Oc1ccc(-c2nc(-c3ccc(C[C@H](NC(=O)c4ccc(C(C)(C)C)cc4)C(=O)O)cc3)no2)cc1 [Compound 33] | 2500 to 5000
CCCOc1ccc(-c2nc(-c3ccc(C[C@H](NC(=O)c4ccc(C(C)(C)C)cc4)C(=O)O)cc3)no2)cc1 [Compound 34] | 2500 to 5000
CC(C)(C)c1ccc(C(=O)N[C@@H](Cc2ccc(-c3noc(-c4ccc(Oc5ccccc5)cc4)n3)cc2)C(=O)O)cc1 [Compound 35] | 2500 to 5000
CC(C)(C)c1ccc(C(=O)N[C@@H](Cc2ccc(-c3noc(-c4ccc(OCc5ccccc5)cc4)n3)cc2)C(=O)O)cc1 [Compound 36] | 2500 to 5000
COc1ccc(-c2nc(-c3ccc(C[C@H](NC(=O)c4ccc(C(C)(C)C)cc4)C(=O)O)cc3)no2)cc1OC [Compound 37] | 2500 to 5000
COc1cc(OC)cc(-c2nc(-c3ccc(C[C@H](NC(=O)c4ccc(C(C)(C)C)cc4)C(=O)O)cc3)no2)c1 [Compound 38] | 800 to 2500
COc1cc(-c2nc(-c3ccc(C[C@H](NC(=O)c4ccc(C(C)(C)C)cc4)C(=O)O)cc3)no2)cc(OC)c1OC [Compound 39] | 800 to 2500
CSc1ccc(-c2nc(-c3ccc(C[C@H](NC(=O)c4ccc(C(C)(C)C)cc4)C(=O)O)cc3)no2)cc1 [Compound 40] | 2500 to 5000
CC(C)(C)c1ccc(C(=O)N[C@@H](Cc2ccc(-c3noc(-c4ccc(S(C)(=O)=O)cc4)n3)cc2)C(=O)O)cc1 [Compound 41] | 2500 to 5000
CCSc1ccc(-c2nc(-c3ccc(C[C@H](NC(=O)c4ccc(C(C)(C)C)cc4)C(=O)O)cc3)no2)cc1 [Compound 42] | 2500 to 5000
CC(C)(C)c1ccc(C(=O)N[C@@H](Cc2ccc(-c3noc(-c4ccc(O)cc4)n3)cc2)C(=O)O)cc1 [Compound 43] | 2500 to 5000
CC(=O)Nc1ccc(-c2nc(-c3ccc(C[C@H](NC(=O)c4ccc(C(C)(C)C)cc4)C(=O)O)cc3)no2)cc1 [Compound 44] | 2500 to 5000
